Results reported in patent US6670307B2, “1,3-oxazoline and 1,3-thiazoline derivatives, their preparation, and their use as pesticides” (Hoechst Schering AgrEvo GmbH, priority 1998, dated 2003).

Tests used:
Tetranychus urticae = assay: Effect on the spider mites Tetranychus urticae (spray on infested bean plants); format: in vivo; details: 168 h, read-out: mortality of all mite stages
Description: Effect on the Spider Mites Tetranychus urticae
Bean plants (Phaseolus vulgaris) which were severely infested with a complete population of spider mites (Tetranychus urticae) were sprayed to runoff point with an aqueous solution of the formulated preparation to be tested. The mortality of all mite stages was determined after 7 days. At a concentration of 300 ppm (based on active substance content), a 90-100% mortality was shown by the preparations of Examples 1, 2, 3, 4, 7, 8, 9, 14, 18, 21, 31, 40, 41, 43, 44, 47, 51, 106, 152 and 153.

Spodoptera litoralis = assay: Effect on the butterfly larva Spodoptera litoralis (L4 larvae, Petri dish spray); format: in vivo; details: 96 h, read-out: larval mortality
Description: Effect on the Butterfly Larva Spodoptera litoralis
Ten L4 larvae of the Egyptian cotton leafworm (Spodoptera litoralis) were introduced into a Petri dish whose bottom was covered with filter paper and contained approx. 5 ml of nutrient medium. Filter paper, nutrient paper and the larvae which had been introduced were then sprayed with an aqueous solution of the formulated preparation to be tested. The Petri dish was subsequently sealed with a lid. After 4 days' storage at approx. 23° C., the effect of the preparation on the larvae was determined. At a concentration of 300 ppm (based on the active substance content), a 90-100% larval mortality was caused by the preparations of Examples 3, 4, 22, 105, 106.

Lucilia cuprina = assay: Effect on the larvae of the copperbottle Lucilia cuprina (treated nutrient medium); format: in vivo; details: for mortality at 100 ppm: Lucilia cuprina, 72 h, read-out: mortality in the fly larvae; for mortality in the fly larvae: 100 ppm in larval nutrient medium of ground mutton, monitored over 72 hours
Description: Effect on the Larvae of the Copperbottle Lucilia cuprina
In a sample container, 20 recently hatched larvae of the copperbottle Lucilia cuprina were placed on a larval nutrient medium of ground mutton which contained the test substance in a concentration of 100 ppm. Larval growth on the nutrient medium is monitored over 72 hours up to larva 3. At a concentration of 100 ppm (based on the active substance content), a 100% mortality in the fly larvae employed was shown by the preparations of Examples 2, 3, 4, 5, 105, 106.

Aphis fabae = assay: Effect on the aphid Aphis fabae (spray on infested field beans); format: in vivo; details: 72 h, read-out: mortality of the aphids
Description: Effect on the Aphid Aphis fabae
Field beans (Vicia faba) which were densly populated with the black bean aphid (Aphis fabae) were sprayed to runoff point with an aqueous solution of the formulated preparation to be tested. The mortality of the aphids was determined after 3 days. At a concentration of 300 ppm (based on the active substance content), a 90-100% mortality was shown by the preparations of Examples 1, 2, 3, 4, 7, 8, 152.

Heliothis virescens = assay: Effect on the egg-larval stage of Heliothis virescens; format: in vivo; details: 144 h, read-out: mortality of eggs and any larvae hatched from them
Description: Effect on the Egg-Larval Stage of Heliothis virescens
A Petri dish whose bottom was covered with filter paper and which contained approx. 5 ml of nutrient medium was prepared. Filter paper sections containing approx. 30 24-hour-old eggs of the tobacco budworm (Heliothis virescens) were immersed for 5 seconds into an aqueous solution of the formulated preparation to be tested and subsequently placed in the Petri dish. A further 200 μl of the aqueous solution were distributed over the nutrient medium. After the Petri dish had been sealed, it was stored in a controlled-environment cabinet at approx. 25° C. After 6 days' storage, the mortality of the preparation on the eggs and any larvae hatched from them was determined. At a concentration of 300 ppm (based on the active substance content), a 90-100% mortality was caused by the preparations of Examples 1, 2, 3, 4, 5, 6, 7, 8, 14, 17, 21, 22, 23, 34, 35, 39, 40, 43, 44, 106.

Ctenocephalides felis = assay: Effect on developmental stages of the cat flea Ctenocephalides felis (treated larval medium); format: in vivo; details: 1000 ppm in larval nutrient medium, approx. 30 flea eggs, read-out: mortality (hatching of flea larvae and development into pupae and adult fleas)
Excerpt: Effect on Developmental Stages of the Cat Flea Ctenocephalides felis
The larval nutrient medium of the cat flea, composed of equal parts of blood meal and quartz sand, was admixed with the test substance at a concentration of 1000 ppm. Approx. 30 flea eggs freshly obtained from a breeding colony were transferred onto the medium. To assess the affect of the preparation, hatching of the flea larvae and their development into pupae and adult fleas was observed. A mortality of 100% was caused by the test substances of Examples 2, 3 and 4.

[1] = test system: Diabrotica undecimpunctata; assay: Effect on the corn budworm Diabrotica undecimpunctata (L2 larvae, soil application); format: in vivo; details: for mortality at 300 ppm: Diabrotica undecimpunctata, soil, 120 h, read-out: mortality of the test animals; for mortality of the test animals: 300 ppm (based on active substance content), 1 ml pipetted onto soil, L2 larvae, after 5 days at 21° C.
Description: Effect on the Corn Budworm Diabrotica undecimpunctata
Maize seed was pregerminated for 6 hours while submerged in water, then placed into 10-ml glass tubes and covered with 2 ml of soil in each case. After 1 ml of water had been added, the plants remained in the glass tubes at 21° C. until plant length was approx. 3 cm. 10 L2 larvae of the corn budworm (Diabrotica undecimpunctata) were then introduced into each tube on the soil. Two hours later, 1 ml of an aqueous solution of the formulated preparation to be tested were pipetted onto the soil surface in the tubes. After storage for 5 days under laboratory conditions at 21° C., the soil and root sections were examined for live Diabrotica larvae and the mortality was determined. At a concentration of 300 ppm (based on the active substance content), a 100% mortality of the test animals employed was shown by the preparations of Example 2, 3, 5, 9, 19, 39.

Row | SMILES | mortality at 300 ppm (Tetranychus urticae) | mortality at 100 ppm (Lucilia cuprina) | mortality at 300 ppm (Aphis fabae) | mortality at 300 ppm (Heliothis virescens) | mortality at 300 ppm [1] | further results
1 | CCCOc1ccc(-c2ccc(C3COC(c4c(F)cccc4F)=N3)cc2)cn1 (stereo not shown) [Example 4, 2-(2,6-Difluorophenyl)-4-[4-(2-n-propyloxypyridin-5-yl)phenyl]oxazoline] | 90 to 100% | 100% | 90 to 100% | 90 to 100% |  | mortality at 300 ppm (Spodoptera litoralis): 90 to 100%; mortality at 1000 ppm (Ctenocephalides felis): 100%
2 | Fc1ccccc1C1=NC(c2ccc(-c3ccc(OCC(F)(F)F)nc3)cc2)CO1 (stereo not shown) [Example 402, 2-(2-Fluorophenyl)-4-[4-(2-trifluoroethoxypyridin-5-yl)phenyl]oxazoline] |  |  |  |  |  | melting point: 101 °C
3 | Fc1cccc(F)c1C1=NC(c2ccc(-c3ccc(OCC(F)(F)F)nc3)cc2)CO1 (stereo not shown) [Example 3, 2-(2,6-Difluorophenyl)-4-[4-(2-trifluoroethoxypyridin-5-yl)phenyl]oxazoline] | 90 to 100% | 100% | 90 to 100% | 90 to 100% | 100% | mortality at 300 ppm (Spodoptera litoralis): 90 to 100%; mortality at 1000 ppm (Ctenocephalides felis): 100%
4 | CCC(C)Oc1ccc(-c2ccc(C3COC(c4c(F)cccc4F)=N3)cc2)cn1 (stereo not shown) [Example 9] |  |  |  |  |  | mortality of the test animals [1]: 100%
5 | CCCc1ccc(-c2ccc(C3COC(c4c(F)cccc4F)=N3)cc2)cn1 (stereo not shown) [Example 34, 2-(2,6-Difluorophenyl)-4-[4-(2-n-propylpyridin-5-yl)phenyl]oxazoline] |  |  |  | 90 to 100% |  | 
6 | CC[S+]([O-])c1ccc(-c2ccc(C3COC(c4c(F)cccc4F)=N3)cc2)cn1 (stereo not shown) [Example 40, 2-(2,6-Difluorophenyl)-4-[4-(2-ethylsulfinylpyridin-5-yl)phenyl]oxazoline] | 90 to 100% |  |  | 90 to 100% |  | 
7 | CCSc1ccc(-c2ccc(C3COC(c4c(F)cccc4F)=N3)cc2)cn1 (stereo not shown) [Example 39, 2-(2,6-Difluorophenyl)-4-[4-(2-ethylthiopyridin-5-yl)phenyl]oxazoline] |  |  |  | 90 to 100% | 100% | 
8 | CCOc1ccc(-c2ccc(C3COC(c4c(F)cccc4F)=N3)c(OC)c2)cn1 (stereo not shown) [Example 105] |  |  |  |  |  | mortality in the fly larvae (Lucilia cuprina): 100%
9 | CCOc1cc(-c2ccc(OCC(F)(F)F)nc2)ccc1C1COC(c2c(F)cccc2F)=N1 (stereo not shown) [Example 106, 2-(2,6-Difluorophenyl)-4-[2-ethoxy-4-(2-trifluoroethoxypyridin-5-yl)phenyl]-oxazoline] | 90 to 100% | 100% |  | 90 to 100% |  | mortality at 300 ppm (Spodoptera litoralis): 90 to 100%
10 | CCOc1ccc(-c2ccc(C3COC(c4c(F)cccc4F)=N3)cc2)cn1 (stereo not shown) [Example 2, 2-(2,6-Difluorophenyl)-4-[4-(2-ethoxypyridin-5-yl)phenyl]oxazoline] | 90 to 100% | 100% | 90 to 100% | 90 to 100% | 100% | mortality at 1000 ppm (Ctenocephalides felis): 100%
11 | Fc1cccc(F)c1C1=NC(c2ccc(-c3ccc(OCC(F)(F)F)nc3)cc2)CS1 (stereo not shown) [Example 19, 2-(2,6-Difluorophenyl)-4-[4-(2-trifluoroethoxypyridin-5-yl)phenyl]thiazoline] |  |  |  |  | 100% | 
12 | CC(C)COc1ccc(-c2ccc(C3COC(c4c(F)cccc4F)=N3)cc2)cn1 (stereo not shown) [Example 8, 2-(2,6-Difluorophenyl)-4-[4-(2-isobutyloxypyridin-5-yl)phenyl]oxazoline] | 90 to 100% |  | 90 to 100% | 90 to 100% |  | 
13 | CC(C)Oc1ccc(-c2ccc(C3COC(c4c(F)cccc4F)=N3)cc2)cn1 (stereo not shown) [Example 5] |  |  |  |  |  | mortality in the fly larvae (Lucilia cuprina): 100%; mortality of the test animals [1]: 100%
